These results are taken from patent US20140045764A1, “NEUROPROTECTIVE PEPTIDES” (Neurim Pharmaceuticals (1991) Ltd., priority 2012, published 2014).

Marks after values point to notes of the source that are not given here.

The nature of data set [1]: Pharmacokinetics after subcutaneous administration in rats (plasma, LC-MS/MS). In kind it is in vivo, Sprague Dawley rats. The conditions noted are these: subcutaneous 1 mg/kg; for Cmax: male, Sprague-Dawley, sc, rat plasma, read-out: apparent Cmax. The procedure:
The pharmacokinetics of the peptides was evaluated following SC peptide administration in male Sprague Dawley rats. Peptide solution was prepared using phosphate buffer saline (pH 7.4) as vehicle and was administered through subcutaneously at the dose of 1 mg/kg with dosing volume of 2 mL/kg.
Blood samples were collected at 0 (pre-dose) and 0.17, 0.5, 1, 2, 4, 8 and 24 hours following administration. At each time point, approximately 0.25 mL of blood was withdrawn through jugular vein of the cannulated rats and transferred to a pre-labeled microfuge tube containing 200 mM K2EDTA (20 μL per mL of blood). Following sampling equal volume of heparinized saline was flushed in to catheter. Blood samples were centrifuged at 5000 g for 5 minutes at 4±2° C. All the plasma samples were stored below −70° C. until analysis. A fit-for-purpose LC-MS/MS method was used for the quantification of the peptides in plasma samples. The lower limit of quantification (LLOQ) was 22.34 ng/mL.

Data set [2] has as its system MPTP-treated mice. Description: MPTP mouse Parkinson's model, striatal dopamine and metabolites by HPLC. The conditions noted are these: for DA / DOPAC / HVA: striatal level, peptide 1 mg/kg intranasal, divided by total protein and normalized to vehicle treated mice. The data set is classed as in vivo, C57BL mice. The procedure:
C57BL mice (all male, age 8-12 weeks, obtained from Harlan Laboratories Israel) were administered with 18 mg/kg MPTP (Sigma-Aldrich) at a dosage volume of 100 μl/mouse by intraperitoneal (IP) injection twice daily, 3 hrs apart on days 1 and 2. On study day 0 and for 8 consecutive days, mice were administered intranasally with PBS (vehicle) or one of the peptides at 1 mg/kg in 12 μl/mouse. All peptides used in in vivo studies were synthesized by LifeTein and were modified with N terminal acetylation and C terminal amidation. For intranasal instillation, each mouse was mildly anesthetized (2.5% Isoflurane) then restrained and held with the neck parallel to the table while a total volume of 12 μl was administered into the nostril. Six (6) μl was administered to the left nostril as two 3 μl drops, followed by a 15 sec hold, and 6 μl was administered to the right nostril as two 3 μl drops, followed by a 15 seconds hold. On day 8 the animals were euthanized by cervical dislocation. Immediately after euthanasia, the brains were removed and the striata dissected (left and right striatum were pooled), weighed and frozen in dry ice. The striata samples were homogenized in a solution containing 0.1 M perchloric acid and 10 ng/ml 3,4 dihydroxybenzylamine (DHBA) by 5 seconds sonication at 80 W. The supernatants of each tissue extract were injected directly to HPLC pump (Jasco PU-2080Plus) onto a reverse phase column (GL-Science, Inertsil ODS-2 5 um 4.6×150 mm at room temperature) coupled to an electrochemical detector Coulochem II ESA with a conditioning cell model 5021 and analytical cell model 5011. The working potential was set to 0.35V on the conditioning cell and 0.1V and −0.35V on the analytical cell. The mobile phase was 0.05M monobasic sodium phosphate, with 80 mg/L EDTA, 125 mg/L heptane sulfonic acid, 55 ml of methanol and 50 ml of acetonitrile pH=2.7. The flow rate was 1.5 ml/min. The dopamine, DOPAC and HVA values were normalized to the lysate protein concentration (BCA kit, Pierce).
In this model, repeated itraperitoneal injections of MPTP (18 mg/kg at 3-h intervals on two consecutive days) result in dopaminergic neuronal death in the substantia nigra and dopamine depletion of the striatum. The peptides (or vehicle) were applied twice daily by intranasal instillation at 1 mg/kg starting 1 day prior to exposure to MPTP and continued until the end of the study. 7 days after the injection of MPTP mice were sacrificed and striatal levels of dopamine (DA), […] (DOPAC) and homovanillic acid (HVA) were evaluated by HPLC.
Specifically Table 2 illustrates the effect of human V6 and V 10-derived peptides (1 mg/kg, intranasal administration) on the striatal level of dopamine and metabolites in MPTP-treated mice. Mice were treated according to the protocol described in the Materials and Methods. Striatal levels of DA, DOPAC and HVA were determined by HPLC, divided by the total protein content value and normalized to the levels obtained in vehicle treated mice. Groups 1 and 3 treated with 1:1 mix of normal designated and retro-inverso analog (D amino acids at reversed sequence). Group 6 was treated with 1:1 mix of 10B2.5—6 and 10B2.5—9 peptides.

In data set [3] the test system is N2A mouse neuroblastoma cells. The data set can be described thus: Protection of N2A cells from 6-OHDA (viability, alamar blue). In kind it is cell-based. The conditions noted are these: 30 or 40 μM 6-OHDA 22 hrs, peptide 10 fM and 1 μM. Here is the method:
All peptides were synthesized by LifeTein (South Pleinfield, N.J., USA) at >95% purity. N2A mouse neuroblastoma and SK-N-SH human neuroblastoma (ATCC) were maintained in Dulbecco's modified Eagle's medium supplemented with 10% fetal calf serum, L-Glut and 1% Penicillin-Streptomycin (Beit Haemek, Israel). Cells were maintained in an incubator at 37° C. with 5% CO2. SK-N-SH cells were treated with 3 μM RA (Sigma-Aldrich) for 5 days prior to each experiment to allow the cells to differentiate towards neuronal cells. […] The intensity of the water soluble dye is proportional to the number of metabolic active cells. […] The viability assay was followed by caspase 3 assay (EnzChek Caspase3 Assay kit, Invitrogen, Carlsbad, Calif., USA) according to the manufacture's instructions
All methods are the same as in Example 1 above. Peptides and 6-hydroxydopamine were purchased from Sigma-Aldrich (St. Lewis, USA).
These peptides were screened for their protective effect on 6-hydroxydopamine (6-OHDA) treated N2A cells at 1 pM concentration. 6-OHDA is a dopamine analogue that is commonly used in model systems to mimic Parkinson's disease in vitro and in vivo, 6-OHDA induces apoptosis through release of reactive oxygen species (ROS) and by a possible direct effect on the mitochondrial respiratory chain. […] The protective effect of some of the peptides was tested in a wide dose range. […] The peptide panel was also tested for their effect on Aβ (25-35) induced toxicity in SK-N-SH human neuroblastoma cells at pM concentration. The profile of peptides effective against the Aβ stress was strikingly different than the 6-OHDA-effective peptides (FIGS. 7A-B).
The peptides shown on Table 3 were tested for their effect in protecting N2A from 6-OHDA (FIG. 8). […] Such modifications include C-terminus truncation (26-1, 26-2 and 26-3), replacement of the N-terminal glutamic acid residue with glutamine and histidine at position 7 with alanine (26-8 and 26-9, respectively).
(The colour change of resazurin is a common sign of viable cells or microbes.)

The test system of data set [4] is Aβ(1-42) microinjection rat model. Description: Aβ(1-42) microinjection rat model, IH/ICV peptide, novel object recognition. In kind it is in vivo, Sprague Dawley rats. The conditions noted are these: 21 days after Aβ injection, p<0.01 versus vehicle. The procedure: Aβ(1-42) (Sigma-Aldrich, USA), was dissolved in filtered PBS at the concentration of 6 μg/μl, and the solution kept at 37° C. for 2 days before use. One microliter of the solution was injected by means of a microsyringe into the right hippocampus under sodium pentobarbital (55 mg/kg i.p.) anesthesia at the stereotaxic coordinates: AP=−3.6, ML=2.0, from Bregma and DV=3.0 from the skull. Control rats were injected with 1 μl of PBS. In the IH/ICV study, 1 μl of the peptide or PBS was also injected into the right hippocampus at the same stereotaxic coordinates.
For ICV injection, a microinjection cannula was planted into the lateral cerebral ventricle according to the following stereotaxic coordinates: AP=−1, ML=1.6, DV=3.8. […]
The training apparatus was a black Plexiglas box (50×50×40 cm) placed in a sound-attenuating cabinet which was located in a brightly lit and isolated room. […] During the training trial, the rat was placed in the box and allowed to explore two identical objects for 10 min and the total time spent exploring both objects was recorded. […] The rat was placed in the box for 3 min and the time spent exploring each object and the total time spent exploring both objects were recorded. The discrimination index used to assess memory was calculated as the difference in time exploring the novel and familiar object, expressed as the ratio of the total time spent exploring both objects. […]

Data set [5] concerns Met tyrosine kinase receptor. The conditions noted are these: literature reference [24]; cited from earlier work.

What is called Cmax is the maximum level reached in the sampled fluid or tissue. For the molecule `CC(=O)N1CCC[C@@H]1C(=O)N[C@H](Cc1ccc(O)cc1)C(=O)N[C@H](Cc1c[nH]cn1)C(=O)N[C@H](CO)C(=O)N[C@@H](C(=O)N[C@H](Cc1ccc(O)cc1)C(=O)NCC(=O)N[C@H](CCC(=O)O)C(N)=O)[C@H](C)O` (relative stereo) [26-RI, *P*Y*H*S*T*Y*G*E], in data set [1], the peak concentration (Cmax) turned out to be 1230 ng/mL. Moreover, in data set [1] (rat), the “improvement of Cmax compared to P26” value turned out to be 10 fold.

With “Ac-EGYTSHYP-NH2 (N-terminus and C-terminus assumed) [V10A1_N+4, EGYTSHYP]”, the Cmax in data set [1] turned out to be 130 ng/mL.

As for EDSH (Human V6B1_C4 peptide) [hV6B1_C4], in data set [2], the DA is given as 20.7, the DOPAC is given as 41.7 and the HVA amounted to 16.6.

As for EGYTS (Human 26-3 peptide), the “activity in protecting N2A from 6-OHDA” value in data set [3] is “maintaining at least partial activity”.

Turning to EGYTSAYP (Human 26-9 peptide), the “activity in protecting N2A from 6-OHDA” value in data set [3] was “maintaining at least partial activity”.

EGYTSH (Human 26-2 peptide): in data set [3], the “activity in protecting N2A from 6-OHDA” value is “maintaining at least partial activity”.

As to EGYTSHY (Human 26-1 peptide), in data set [3], the “activity in protecting N2A from 6-OHDA” value is given as “maintaining at least partial activity”.

Consider “FGVTAVTV (Human V10B1_8 peptide (also referred to as P34))”, for which, in data set [4] (10 ng/rat IH/ICV), the “discrimination index, novel object recognition” value was “increased significantly”. The “discrimination index, novel object recognition” value in data set [4] (100 ng/rat IH/ICV) is “increased significantly”. In data set [2] (1 mg/kg intranasal), the “effect on striatal DA level compared to the vehicle control” value was “significantly positive effect”; the “levels of at least one of the 2 DA metabolites, DOPAC and HVA” value (shortened to “levels”) is “increased significantly”. For the same molecule, in data set [2], the DA is 46.6 *, the DOPAC is recorded as 75.9 ** and the HVA was 83.3 **.

Regarding “NRWHE (A pentapeptide derived from the human V6)”, the “inhibiting hepatocyte growth factor (HGF) signal transduction through Met tyrosine kinase receptor” value in data set [5] is on record as “capable of inhibiting”.

Regarding NVNRSL (Human V10B2.5_6 peptide), the “levels” value in data set [2] (1 mg/kg intranasal) is recorded as “increased significantly”.

Take NVNRSLSGD (Human V10B2.5_9 peptide): in data set [2] (1 mg/kg intranasal), the “levels” value is reported as “increased significantly”.

Turning to PVTSAKTGSFG [V10A/B_S], in data set [2], the DA worked out at 26.6, the DOPAC came to 27.2 and the HVA is 13.7.

For QGYTSHYP (Human 26-8 peptide), in data set [3], the “activity in protecting N2A from 6-OHDA” value was “maintaining at least partial activity”.

As for TTLLEG (Human V10A1_N6 peptide), in data set [2], the DA was 17.7, the DOPAC stood at 24.3 and the HVA is −0.7.

Take “hV10A2: human CD44V10-derived peptide, SEQ ID NO: 12; sequence not printed (TKESRTFIPVTSAKT; Human V10A2 peptide)”: the “levels” value in data set [2] (1 mg/kg intranasal) is “increased significantly”. In data set [2], the DA amounted to 24.7, the DOPAC was 54.8 * and the HVA is 73.4 **.

As to “hV10B3: human CD44V10-derived peptide, SEQ ID NO: 15; sequence not printed (SLSGDQDTFHPSG; Human V10B3 peptide)”, the “levels” value in data set [2] (1 mg/kg intranasal) was “increased significantly”. Also, in data set [2], the DA is listed as 18.1, the DOPAC is 22.5 and the HVA is listed as 44.2 *.
